Laboratory results from patent publication US8889874B2, “Imidazolone-chalcone derivatives as potential anticancer agent and process for the preparation thereof” (Council of Scientific and Industrial Research, priority 2010, dated 2014).
Where two headings read alike, the source gives them in different places.

Columns and labels:
Assay type in all cases: cell-based, human
[1] = system: A498 (renal); assay: NCI anticancer screen, SRB assay, 48 h; conditions: Homo sapiens
Outline: (§1)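 Compounds were tested across fifty three human cancer cell lines from nine tumour types. Each line got a dose-response curve of at least five concentrations at 10-fold dilutions, with continuous drug exposure and sulforhodamine B protein staining to estimate viability or growth.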

[2] = system: HCC-2998 (colon); assay: NCI anticancer screen, SRB assay, 48 h; conditions: Homo sapiens
Outline: as §1

[3] = system: HCT-116 (colon); assay: NCI anticancer screen, SRB assay, 48 h; conditions: Homo sapiens
Outline: as §1

[4] = system: HCT-15 (colon); assay: NCI anticancer screen, SRB assay, 48 h; conditions: Homo sapiens
Outline: as §1

[5] = system: HOP-62 (non-small cell lung); assay: NCI anticancer screen, SRB assay, 48 h; conditions: Homo sapiens
Outline: as §1

[6] = system: HOP-92 (non-small cell lung); assay: NCI anticancer screen, SRB assay, 48 h; conditions: Homo sapiens
Outline: as §1

[7] = system: HS 578T (breast); assay: NCI anticancer screen, SRB assay, 48 h; conditions: Homo sapiens
Outline: as §1

[8] = system: K-562 (leukemia cell line); assay: NCI anticancer screen, SRB assay, 48 h; conditions: Homo sapiens
Outline: as §1

[9] = system: MDA-MB-231/ATCC (breast); assay: NCI anticancer screen, SRB assay, 48 h; conditions: Homo sapiens
Outline: as §1

[10] = system: MDA-MB-435 (melanoma); assay: NCI anticancer screen, SRB assay, 48 h; conditions: Homo sapiens
Outline: as §1

[11] = system: NCI-H23 (non-small cell lung); assay: NCI anticancer screen, SRB assay, 48 h; conditions: Homo sapiens
Outline: as §1

[12] = system: NCI-H460 (non-small cell lung); assay: NCI anticancer screen, SRB assay, 48 h; conditions: Homo sapiens
Outline: as §1

[13] = system: OVCAR-4 (ovarian); assay: NCI anticancer screen, SRB assay, 48 h; conditions: Homo sapiens
Outline: as §1

[14] = system: SK-MEL-28 (melanoma); assay: NCI anticancer screen, SRB assay, 48 h; conditions: Homo sapiens
Outline: as §1

[15] = system: SNB-75 (CNS); assay: NCI anticancer screen, SRB assay, 48 h; conditions: Homo sapiens
Outline: as §1

[16] = system: TD-47D (breast); assay: NCI anticancer screen, SRB assay, 48 h; conditions: Homo sapiens
Outline: as §1

[17] = system: UO-31 (renal); assay: NCI anticancer screen, SRB assay, 48 h; conditions: Homo sapiens
Outline: as §1

[18] = system: Breast cancer cell lines; assay: NCI anticancer screen, SRB assay, panel summary; conditions: Homo sapiens
Outline: as §1

[19] = system: CNS cancer cell lines; assay: NCI anticancer screen, SRB assay, panel summary; conditions: for GI50: Homo sapiens
Outline: as §1

[20] = system: Colon cancer cell lines; assay: NCI anticancer screen, SRB assay, panel summary; conditions: for GI50: Homo sapiens
Outline: as §1

[21] = system: Leukemia cancer cell lines; assay: NCI anticancer screen, SRB assay, panel summary; conditions: Homo sapiens
Outline: as §1

[22] = system: Melanoma cancer cell lines; assay: NCI anticancer screen, SRB assay, panel summary; conditions: for GI50: Homo sapiens
Outline: as §1

[23] = system: Non-small cell lung cancer cell lines; assay: NCI anticancer screen, SRB assay, panel summary; conditions: Homo sapiens
Outline: as §1

[24] = system: Ovarian cancer cell lines; assay: NCI anticancer screen, SRB assay, panel summary; conditions: Homo sapiens
Outline: as §1

[25] = system: Prostate cancer cell lines; assay: NCI anticancer screen, SRB assay, panel summary
Outline: as §1

[26] = system: Renal cancer cell lines; assay: NCI anticancer screen, SRB assay, panel summary; conditions: Homo sapiens
Outline: as §1

[27] = 48 h exposure, SRB, read-out: GI50
[28] = read-out: pGI50 (-log of molar concentration causing 50% inhibition of net cell growth) (converted)

SMILES: COc1cc(/C=C/C(=O)c2cccc(-n3cc(-c4ccccc4)[nH]c3=O)c2)ccc1O [3a, 1-3-[(E)-3-(4-hydroxy-3-methoxyphenyl)-2-propenoyl]phenyl-4-phenyl-2,3-dihydro-1H-2-imidazolone]
- GI50 [1, 27]: 1.68 µM
- GI50 [1, 28]: 1.7 µM
- GI50 [2, 27]: 1.51 µM
- GI50 [2, 28]: 1.51 µM
- GI50 [3, 27]: 1.4 µM
- GI50 [3, 28]: 1.41 µM
- GI50 [4, 27]: 2.73 µM
- GI50 [4, 28]: 2.75 µM
- GI50 [5, 27]: 1.48 µM
- GI50 [5, 28]: 1.48 µM
- GI50 [6, 27]: 2.27 µM
- GI50 [6, 28]: 2.29 µM
- GI50 [7, 27]: 4.16 µM
- GI50 [7, 28]: 4.17 µM
- GI50 ([8]; K562, 48 h exposure, SRB, read-out: GI50): 2.04 µM
- GI50 ([8]; K562, read-out: pGI50 (-log of molar concentration causing 50% inhibition of net cell growth) (converted)): 2.04 µM
- GI50 [9, 27]: 3.36 µM
- GI50 [9, 28]: 3.39 µM
- GI50 [10, 27]: 2.14 µM
- GI50 [10, 28]: 2.14 µM
- GI50 [11, 27]: 2.02 µM
- GI50 [11, 28]: 2.04 µM
- GI50 [12, 27]: 1.95 µM
- GI50 [12, 28]: 1.95 µM
- GI50 [13, 27]: 5.19 µM
- GI50 [13, 28]: 5.25 µM
- GI50 [14, 27]: 1.85 µM
- GI50 [14, 28]: 1.86 µM
- GI50 [15, 27]: 3.9 µM
- GI50 [15, 28]: 3.89 µM
- GI50 [16, 27]: 2.7 µM
- GI50 [16, 28]: 2.69 µM
- GI50 [17, 27]: 2.18 µM
- GI50 [17, 28]: 2.19 µM
- GI50 ([18]; Breast panel, log of concentration in mol/L causing 50% inhibition of net cell growth, read-out: mean graph midpoint (MG_MID) of Log10 GI50 (converted)): 2.82 µM
- LC50 ([18]; Breast panel, log of concentration leading to 50% net cell death, read-out: mean graph midpoint (MG_MID) of Log10 LC50 (converted)): 53.7 µM
- GI50 ([18]; five breast cancer cell lines, exposure at least 48 hrs, read-out: GI50, range over the panel): 1.55 to 4.16 µM
- mean graph midpoint (MG_MID) of Log10 LC50 ([19]; CNS panel, log of concentration leading to 50% net cell death): 4.62
- GI50 ([19]; CNS panel, log of concentration in mol/L causing 50% inhibition of net cell growth, read-out: mean graph midpoint (MG_MID) of Log10 GI50 (converted)): 2.57 µM
- GI50 ([19]; six CNS cancer cell lines, exposure at least 48 hrs, read-out: GI50, range over the panel): 1.91 to 3.9 µM
- mean graph midpoint (MG_MID) of Log10 LC50 ([20]; Colon panel, log of concentration leading to 50% net cell death): 4.68
- GI50 ([20]; Colon panel, log of concentration in mol/L causing 50% inhibition of net cell growth, read-out: mean graph midpoint (MG_MID) of Log10 GI50 (converted)): 2.14 µM
- GI50 ([20]; seven colon cancer cell lines, exposure at least 48 hrs, read-out: GI50, range over the panel): 1.4 to 3.77 µM
- GI50 ([21]; Leukemia panel, log of concentration in mol/L causing 50% inhibition of net cell growth, read-out: mean graph midpoint (MG_MID) of Log10 GI50 (converted)): 1.86 µM
- LC50 ([21]; Leukemia panel, log of concentration leading to 50% net cell death, read-out: mean graph midpoint (MG_MID) of Log10 LC50 (converted)): 66.1 µM
- GI50 ([21]; two leukemia cancer cell lines (RPMI-8226 and K-562), exposure at least 48 hrs, read-out: GI50, range over the panel): 1.67 to 2.04 µM
- GI50 ([22]; Melanoma panel, log of concentration in mol/L causing 50% inhibition of net cell growth, read-out: mean graph midpoint (MG_MID) of Log10 GI50 (converted)): 2.57 µM
- GI50 ([22]; nine melanoma cancer cell lines, exposure at least 48 hrs, read-out: GI50, range over the panel): 1.59 to 6.81 µM
- mean graph midpoint (MG_MID) of Log10 LC50 ([22]; Melanoma panel, log of concentration leading to 50% net cell death): 4.06
- GI50 ([23]; Non-small cell lung panel, log of concentration in mol/L causing 50% inhibition of net cell growth, read-out: mean graph midpoint (MG_MID) of Log10 GI50 (converted)): 2.57 µM
- LC50 ([23]; Non-small cell lung panel, log of concentration leading to 50% net cell death, read-out: mean graph midpoint (MG_MID) of Log10 LC50 (converted)): 41.7 µM
- GI50 ([23]; nine non-small cell lung cancer cell lines, exposure at least 48 hrs, read-out: GI50, range over the panel): 1.48 to 3.9 µM
- GI50 ([24]; Ovarian panel, log of concentration in mol/L causing 50% inhibition of net cell growth, read-out: mean graph midpoint (MG_MID) of Log10 GI50 (converted)): 3.24 µM
- LC50 ([24]; Ovarian panel, log of concentration leading to 50% net cell death, read-out: mean graph midpoint (MG_MID) of Log10 LC50 (converted)): 11.7 µM
- GI50 ([24]; six ovarian cancer cell lines, exposure at least 48 hrs, read-out: GI50, range over the panel): 2.04 to 5.19 µM
- GI50 ([25]; Homo sapiens, log of concentration in mol/L causing 50% inhibition of net cell growth, read-out: mean graph midpoint (MG_MID) of Log10 GI50 (converted)): 2.51 µM
- LC50 ([25]; Homo sapiens, log of concentration leading to 50% net cell death, read-out: mean graph midpoint (MG_MID) of Log10 LC50 (converted)): ≥ 100 µM
- mean graph midpoint (MG_MID) of Log10 TGI ([25]; log of concentration resulting in total inhibition of net cell growth): 5.13
- GI50 ([26]; Renal panel, log of concentration in mol/L causing 50% inhibition of net cell growth, read-out: mean graph midpoint (MG_MID) of Log10 GI50 (converted)): 2.4 µM
- LC50 ([26]; Renal panel, log of concentration leading to 50% net cell death, read-out: mean graph midpoint (MG_MID) of Log10 LC50 (converted)): 34.7 µM
- GI50 ([26]; eight renal cancer cell lines, exposure at least 48 hrs, read-out: GI50, range over the panel): 1.35 to 5.29 µM
